According to patent US8309068B2, “Isolated polypeptides and methods of improving muscle strength” (Myostin Therapeutics Pty Ltd., priority 2006, dated 2012):
Where no end group is shown, it is not given here.

Assays:
primary myoblasts = experiment: Migration of primary myoblasts isolated from mice treated in vivo; conditions: 6 μg/g BW SC three times a week for six weeks; three chemo-attractant media; vs saline
Text: In a second myoblast migration assay, primary myoblasts isolated form hind limb of saline treated (control) and myostatin antagonist 300 treated mice (as described in example 4 below). Three chemo-attractant media were used: DMEM containing 2% horse serum (HS) and 5% chicken embryo extract (CEE) (optimal chemo-attractant); DMEM containing only 5% CEE or DMEM containing only 2% HS (both suboptimal chemo-attractants). Plain DMEM was used as negative control. On a 24-well plate, the bottom wells were filled with test or control media. Seventy-five thousand cells were added to the top wells. The plate was incubated for 7h at 37° C., 5% CO2. […] The membrane was then fixed, stained in Gill's hematoxylin and wet mounted on slides. Migrated cells were counted on four representative fields per membrane and the average number plotted.
(§1) An animal trial was conducted to assess the effects of myostatin antagonist 300 in improving muscle function. Sixteen month old mice were divided into two groups of ten. While the control group received saline subcutaneous (SC) injections, the other group received myostatin antagonist 300 SC at 6 μg/gram of BW three times a week for six weeks. The functional improvement of sarcopenic muscle was assessed by measuring grip strength of mice at the end of trial. Grip strength was measured in Newtons.

Sixteen month old mice = experiment: In vivo trial in sixteen month old mice (sarcopenic muscle, grip strength)
Method: as §1

myostatin antagonist 300: recombinant peptide, amino acids 267-300 of bovine myostatin, with N terminal and C terminal tag (SEQ ID NO: 6) (DFGLDCDEHSTESRCCRYPLTVDFEAFGWDWIIA; cysteine pairing not given here; also: N- and C-terminal tags; listed as Homo sapiens)
migration rates of myoblasts isolated from treated mice (primary myoblasts): significantly increased migration rates
body fat compared with saline treated controls (Sixteen month old mice; 16 month old mice, 6 week treatment, observation, result not shown): reduced the amount of subcutaneous fat including the inguinal fat pad
average percent change in grip strength (Sixteen month old mice; aged mice, 6 μg/g BW SC three times a week, six week period): highly significant increase
grip strength at the beginning and end of the trial (Sixteen month old mice; aged mice, day 0 and day 42, 6 μg/g BW SC three times a week): significantly increased
